Measurements published in article PMC12670164, “In vitro and clinical data demonstrate negligible risk of drug–drug interactions with opelconazole, a novel inhaled antifungal agent” (Journal of Antimicrobial Chemotherapy, 2025).
Values after ≈ are worked out from the molar mass of the structure shown. Values joined by “and” are separate entries in the source; they are usually repeats but may differ in a detail not shown here. Equal values may be shown once. Read-outs that look alike come from different tables or passages of the source.

Assays:
[1] = target: CYP3A4 (Homo sapiens, UniProt P08684); conditions: for IC50: read-out: IC50, CYP3A4
Chain of CYP3A4 (P08684 whole entry, canonical isoform): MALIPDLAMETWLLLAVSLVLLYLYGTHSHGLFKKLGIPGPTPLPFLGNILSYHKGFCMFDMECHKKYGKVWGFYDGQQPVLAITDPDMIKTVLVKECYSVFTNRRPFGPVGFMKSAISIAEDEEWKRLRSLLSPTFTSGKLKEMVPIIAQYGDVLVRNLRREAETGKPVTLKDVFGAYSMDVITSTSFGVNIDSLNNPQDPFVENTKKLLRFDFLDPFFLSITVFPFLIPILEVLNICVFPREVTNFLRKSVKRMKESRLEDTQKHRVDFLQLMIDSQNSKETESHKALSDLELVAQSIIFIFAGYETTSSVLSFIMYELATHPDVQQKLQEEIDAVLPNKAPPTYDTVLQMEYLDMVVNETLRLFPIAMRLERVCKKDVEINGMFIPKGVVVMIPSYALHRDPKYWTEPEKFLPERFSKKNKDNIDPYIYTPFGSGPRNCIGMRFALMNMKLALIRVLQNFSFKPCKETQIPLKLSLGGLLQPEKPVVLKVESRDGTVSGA
Method: The potential for opelconazole to inhibit CYP isoforms was tested in vitro in human liver microsomes. […] Preincubation of the human liver microsomes for periods of 0 min without NADPH and 30 min with NADPH, plus 30 min without NADPH were included to assess for a time-dependent inhibition effect. Two structurally diverse substrates (testosterone and midazolam) were tested to assess substrate-dependent inhibition.

[2] = tested on: CYP1A2; assay: CYP induction, mRNA endpoint, cryopreserved human hepatocytes; conditions: for CYP1A2 mRNA increase: concentration-dependent, 72 h
Method: The potential for opelconazole to act as an inducer of CYP isoforms CYP1A2, CYP2B6 and CYP3A4 was assessed in vitro using an mRNA endpoint across three donors in cryopreserved human hepatocytes. A drug is interpreted as an inducer if: (1) it increases mRNA expression of a CYP enzyme in a concentration-dependent manner and (2) the fold change of CYP mRNA expression relative to vehicle control is ≥2-fold at the drug’s expected hepatic concentrations.[23]
A cytotoxicity assessment using MTT was performed in one of the three donors used for the induction studies prior to dosing.

[3] = tested on: CYP2B6; assay: as above; type: in vitro ADME; conditions: any of the three donors
Method: The hepatocyte cells were dosed with opelconazole (0.012, 0.03, 0.12, 0.3, 1.2 and 3 μM) and positive control compounds (omeprazole for CYP1A2 and rifampicin for CYP3A4).

[4] = tested on: OAT1, OAT3, OCT1, OCT2, OATP1B1, OATP1B3, MATE-1, MATE2-K, P-gp, BCRP, BSEP; assay: Opelconazole as substrate of carrier transporters; type: in vitro ADME, human; conditions: 0.5 and 5 μM; MDCKII, HEK293 cells, BSEP sf9 vesicles
Method: (§1) Human transporter protein interactions with opelconazole as a potential substrate and/or inhibitor were assessed for the following key carrier transporters: organic anion transporters, OAT1 and OAT3; organic cation transporters, OCT1 and OCT2; OATP1B1 and OATP1B3; multidrug and toxin extrusion, MATE-1 and MATE2-K; key ATP-binding cassette (ABC) transporters including P-gp, breast cancer resistance protein (BCRP) and bile salt export pump (BSEP). Two concentrations of opelconazole, 0.5 and 5 μM, were tested using MDCKII cells, human embryonic kidney 293 cells and BSEP-transfected sf9 membrane vesicles and then analysed by LC-tandem MS to determine transporter inhibition and whether opelconazole was a transporter substrate. The viability of experimental test systems was confirmed with controls and known probe substrates and probe inhibitors.

[5] = target: T1, MATE2-K (Homo sapiens, UniProt Q86VL8); assay: Transporter inhibition; type: in vitro ADME
T1 construct: expressed in transfected cells
T1 sequence (Q86VL8 1-566 isoform Q86VL8-3): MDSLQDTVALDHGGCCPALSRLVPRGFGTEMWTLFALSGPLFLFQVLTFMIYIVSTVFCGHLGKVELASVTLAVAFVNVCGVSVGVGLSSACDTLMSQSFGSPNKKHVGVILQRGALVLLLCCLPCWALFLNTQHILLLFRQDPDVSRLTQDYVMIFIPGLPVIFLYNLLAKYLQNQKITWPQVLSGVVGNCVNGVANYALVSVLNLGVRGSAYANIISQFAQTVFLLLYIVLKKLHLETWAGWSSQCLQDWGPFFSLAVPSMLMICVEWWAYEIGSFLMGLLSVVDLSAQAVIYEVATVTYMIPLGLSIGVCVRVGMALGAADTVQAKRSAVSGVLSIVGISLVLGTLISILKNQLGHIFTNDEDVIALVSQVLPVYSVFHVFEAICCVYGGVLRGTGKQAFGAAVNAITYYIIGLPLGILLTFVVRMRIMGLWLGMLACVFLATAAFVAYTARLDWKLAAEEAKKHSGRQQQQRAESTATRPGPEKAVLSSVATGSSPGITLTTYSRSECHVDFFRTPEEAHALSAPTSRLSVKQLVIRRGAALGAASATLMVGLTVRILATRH
Method: as §1

[6] = Phase 1 study: plasma pharmacokinetics of inhaled opelconazole in healthy volunteers; type: in vivo, human
Method: The study was conducted from February 2023 through June 2023 in accordance with the Declaration of Helsinki, Good Clinical Practice, and the International Conference on Harmonisation guidelines (South African National Clinical Trial Registry code: DOH-27-122022-5196). The study documents were approved by an Independent Ethics Committee. Study participants provided written informed consent prior to any study procedures.
Screening occurred within 28 days prior to the first dosing day (Figure 1). Participants were admitted to the study centre on Day −1 and were required to stay there until approximately 48 h after the morning dosing on Day 15. They returned for subsequent PK blood samples at approximately 72 (Day 18), 168 (Day 22) and 336 h (Day 29) after the last morning dosing. On Days 1 and 15, participants received oral midazolam 7.5 mg and oral caffeine 180 mg together after food ingestion.
Standard doses of midazolam and caffeine were used to characterize their PK profiles. The dose selected for opelconazole, 14.8 mg twice daily, is the dose utilized in the clinical development programme for the treatment and prevention of invasive pulmonary aspergillosis (IPA). Following 14 days of twice daily dosing, plasma concentrations were expected to be within 80% of steady-state concentrations and deemed appropriate to assess potential interactions with the probe substrates.
Study participants inhaled opelconazole 14.8 mg twice daily using the PARI LC SPRINT® jet nebuliser for 14 days, starting on Day 2 through Day 15. Morning doses of opelconazole on Day 2 and Day 15 were taken 30 min after food ingestion. Blood samples were taken for PK analyses for midazolam, metabolites of midazolam (1-OH-midazolam and 4-OH-midazolam) and caffeine on Days 1 and 15 at pre-dose (0 h), at 0.5, 1, 1.5, 2, 3, 4, 6, 8, 10, 12, 16, 24, 30, 36 and 48 h post-dose on Days 1 and 15. Blood samples were taken for PK analyses for opelconazole as follows: on Day 2 at pre-morning dose (0 h), at 0.5, 1, 2, 4, 6, 8, 12 and 24 h post-morning dose; on Day 15: at pre-morning-dose (0 h), at 0.5, 1, 2, 4, 6, 8, 10, 12, 24 (Day 16), 30 (Day 16), 36 (Day 16), 48 (Day 17), 72 (Day 18), 168 (Day 22) and 336 (Day 29) h post-morning-dosing.
Primary PK parameters assessed for midazolam and its metabolites (1-OH-midazolam, 4-OH-midazolam), caffeine and opelconazole were Cmax and AUC, from time zero to t, where t is the time of the last quantifiable concentration (AUC(0−t); i.e., AUC(0−12) and AUC(0−24)). Secondary PK parameters were AUC(0−∞), Tmax, apparent t1/2 and accumulation ratio (RO) of opelconazole only.

[7] = substrate midazolam, 30-min preincubation
[8] = Day 2, inhaled 14.8 mg twice daily
[9] = Day 15, after 14 days inhaled 14.8 mg twice daily

## Cc1cc(N2CCN(c3ccc(C(=O)Nc4ccc(F)cc4)cc3)CC2)ccc1OC[C@@H]1CO[C@@](Cn2cncn2)(c2ccc(F)cc2F)C1 [opelconazole]
[1]; [7]
  IC50: ~0.15 µM
  IC50, CYP3A4: ~0.102 µg/mL (≈ 0.149 µM)
  time-dependent inhibition of CYP3A4: not evident
[1]; substrate midazolam, without pre-incubation, 0.001–0.25 µM
  IC50: 0.123 µM
[1]; substrate testosterone, 30-min preincubations with or without NADPH
  IC50: 0.15 µM
[1]; substrate testosterone, without pre-incubation, 0.001–0.25 µM
  IC50: > 0.25 µM
[2]; CYP1A2, in vitro
  opelconazole concentration giving threshold induction outcome: 0.3 μM and 204 ng/mL
[2]; donor 1, opelconazole ≥0.3 μM
  CYP1A2 mRNA increase: 2.72 fold
[2]; donor 2, opelconazole ≥0.3 μM
  CYP1A2 mRNA increase: 1.97 fold
[3]
  CYP2B6 mRNA expression: did not increase mRNA expression
[4]
  substrate of carrier transporters: not a substrate
[5]; 0.5 μM opelconazole
  inhibition of MATE2-K relative to solvent control: 19%
[5]; 5 μM opelconazole
  inhibition of MATE2-K relative to solvent control: 52%
[6]; Day 2 (first dosing day), inhaled 14.8 mg twice daily
  AUC(0–12 h), geometric mean (CV%): 7.81 (27.8) h·ng/mL
[6]; [8]
  AUC(0-t), geometric mean (CV%): 19.9 (29.4) h·ng/mL
  AUC(0–24 h), geometric mean (CV%): 19.6 (29.4) h·ng/mL
  Cmax, geometric mean (CV%): 0.91 (29.3) ng/mL
  Tmax, median (range): 6.17 (2.17, 12.1) h
[6]; [9]
  AUC(0-t), geometric mean (CV%): 1270 (45.8) h·ng/mL
  AUC(0–12 h), geometric mean (CV%): 69.8 (45.4) h·ng/mL
  AUC(0–24 h), geometric mean (CV%): 136 (46.7) h·ng/mL
  Cmax, geometric mean (CV%): 7.07 (47.2) ng/mL
  Tmax, median (range): 4.17 (0.67, 48.0) h
  t½, geometric mean (CV%): 188 (21.4) h
[6]; Day 15, inhaled 14.8 mg twice daily, n=2
  AUC(0−∞), geometric mean (CV%): 1720 (31.2) h·ng/mL
[6]; inhaled 14.8 mg twice daily
  RO (accumulation ratio) AUC(0–12 h) Day 15/Day 2, geometric mean (CV%): 8.93 (38.4)
  RO (accumulation ratio) AUC(0–24 h) Day 15/Day 2, geometric mean (CV%): 6.97 (35.8)
  RO (accumulation ratio) Cmax Day 15/Day 2, geometric mean (CV%): 7.77 (46.7)
  observed RO (Day 15/Day 2) for AUC0–12h: 8.9 fold
  observed RO (Day 15/Day 2) for Cmax: 7.8 fold
[6]; multiple inhaled doses, clinical dosing, read-out: systemic Cmax at steady state
  Cmax: 10 nM and ≤ 10 nM
